Test results taken from article PMC9026008 (ACS Omega, 2022).

T1: CGI-58 (Homo sapiens, UniProt Q8WTS1, S237E/W19A/W23A/W27A)
T1 sequence (Q8WTS1 1-349 W19A/W23A/W27A/S237E): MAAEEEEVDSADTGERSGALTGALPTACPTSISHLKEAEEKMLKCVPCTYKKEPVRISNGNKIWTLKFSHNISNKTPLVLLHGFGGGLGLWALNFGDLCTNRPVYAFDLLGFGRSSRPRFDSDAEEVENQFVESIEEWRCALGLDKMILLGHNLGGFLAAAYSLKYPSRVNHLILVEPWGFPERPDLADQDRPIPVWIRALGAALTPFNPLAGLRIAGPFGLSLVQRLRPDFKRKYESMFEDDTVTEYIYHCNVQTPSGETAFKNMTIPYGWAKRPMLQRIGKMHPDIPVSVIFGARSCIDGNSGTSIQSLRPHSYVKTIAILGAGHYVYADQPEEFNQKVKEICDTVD


What was measured:
[1] = molecular target: T1, CGI-58; test: intrinsic tryptophan fluorescence quenching, […] protein, […] °C; type: binding
[2] = molecular target: the molecule itself; test: SEC

| Kd [1] [nM] | Molecule | binding result [2] |
| --- | --- | --- |
| 2300 ± 300 | CCCCCCCC/C=C\CCCCCCCC(=O)SCCNC(=O)CCNC(=O)[C@H](O)C(C)(C)COP(=O)(O)OP(=O)(O)OC[C@H]1O[C@@H](n2cnc3c(N)ncnc32)[C@H](O)[C@@H]1OP(=O)(O)O [oleoyl-CoA] |  |
|  | human CGI-58 (Comparative Gene Identification-58) wild-type protein (natural protein, UniProt Q8WTS1 1-349, looked up) MAAEEEEVDSADTGERSGWLTGWLPTWCPTSISHLKEAEEKMLKCVPCTYKKEPVRISNGNKIWTLKFSHNISNKTPLVLLHGFGGGLGLWALNFGDLCTNRPVYAFDLLGFGRSSRPRFDSDAEEVENQFVESIEEWRCALGLDKMILLGHNLGGFLAAAYSLKYPSRVNHLILVEPWGFPERPDLADQDRPIPVWIRALGAALTPFNPLAGLRIAGPFGLSLVQRLRPDFKRKYSSMFEDDTVTEYIYHCNVQTPSGETAFKNMTIPYGWAKRPMLQRIGKMHPDIPVSVIFGARSCIDGNSGTSIQSLRPHSYVKTIAILGAGHYVYADQPEEFNQKVKEICDTVD | binds |
